From paper PMC8480901 (PLoS ONE, 2021)
Several values for one entry are separate records, joined by “and”; a condition that tells them apart may be missing. Identical values can stand only once.

Tested on: J774.2 mouse macrophages
Assay: LPS-induced cytokine and chemokine levels in J774.2 mouse macrophage cell supernatant (ELISA)
Type: cell-based
Details: for CXCL1 % reduction / CXCL1 [pg/mL] Mean / CXCL2 % reduction / CXCL2 [pg/mL] Mean / MMP9 % reduction / MMP9 [pg/mL] Mean / CXCL2 / MMP9: J774.2 cells; for CXCL1 % reduction / CXCL1 [pg/mL] Mean / CXCL2 % reduction / CXCL2 [pg/mL] Mean / MMP9 % reduction / MMP9 [pg/mL] Mean / CCl2, % reduction / CCl2, Mean / IL-1β % reduction / IL-6 % reduction / TNF-α % reduction / TNF-α Mean / CCl2 / CXCL1 / TNF-α / CXCL2 / MMP9: LPS; for CCl2, % reduction / CCl2, Mean / IL-1β % reduction / IL-6 % reduction / TNF-α % reduction / TNF-α Mean / CCl2 / CXCL1 / TNF-α: J774.2 supernatant; for CCl2 / CXCL1 / TNF-α / CXCL2 / MMP9: individual replicate

For `C[C@@H]1C[C@H]2[C@@H]3CCC4=CC(=O)C=C[C@]4(C)[C@@]3(F)[C@@H](O)C[C@]2(C)[C@@]1(O)C(=O)CO` [Dexamethasone], the CXCL1 % reduction (compound 0.0003 µM) was -75%, the “CXCL1 [pg/mL] Mean” value (compound 0.0003 µM) was 45 pg/mL and the CXCL2 % reduction (compound 0.0003 µM) was 24%. For the same compound, the “CXCL2 [pg/mL] Mean” value (compound 0.0003 µM) was 24934 pg/mL, the MMP9 % reduction (compound 0.0003 µM) was 2.49% and the “MMP9 [pg/mL] Mean” value (compound 0.0003 µM) was 941 pg/mL. The CXCL1 % reduction (compound 0.001 µM) was -60%, the “CXCL1 [pg/mL] Mean” value (compound 0.001 µM) was 41 pg/mL and the CXCL2 % reduction (compound 0.001 µM) was 22%. The “CXCL2 [pg/mL] Mean” value (compound 0.001 µM) was 25589 pg/mL, the MMP9 % reduction (compound 0.001 µM) was -3.26% and the “MMP9 [pg/mL] Mean” value (compound 0.001 µM) was 993 pg/mL. The CXCL1 % reduction (compound 0.003 µM) was -60%, the “CXCL1 [pg/mL] Mean” value (compound 0.003 µM) was 41 pg/mL and the CXCL2 % reduction (compound 0.003 µM) was 22%. The “CXCL2 [pg/mL] Mean” value (compound 0.003 µM) was 25475 pg/mL, the MMP9 % reduction (compound 0.003 µM) was 0.402% and the “MMP9 [pg/mL] Mean” value (compound 0.003 µM) was 960 pg/mL. For the same compound, the CXCL1 % reduction (compound 0.01 µM) was -89%, the “CXCL1 [pg/mL] Mean” value (compound 0.01 µM) was 48 pg/mL and the CXCL2 % reduction (compound 0.01 µM) was 23%. For the same compound, the “CXCL2 [pg/mL] Mean” value (compound 0.01 µM) was 24995 pg/mL, the MMP9 % reduction (compound 0.01 µM) was -17% and the “MMP9 [pg/mL] Mean” value (compound 0.01 µM) was 1120 pg/mL. The “CXCL1 [pg/mL] Mean” value (compound 0.03 µM) was 66 pg/mL, the CXCL2 % reduction (compound 0.03 µM) was 17% and the “CXCL2 [pg/mL] Mean” value (compound 0.03 µM) was 26915 pg/mL. For the same compound, the MMP9 % reduction (compound 0.03 µM) was -7%, the “MMP9 [pg/mL] Mean” value (compound 0.03 µM) was 1030 pg/mL and the CXCL1 % reduction (compound 0.1 µM) was -158%. The “CXCL1 [pg/mL] Mean” value (compound 0.1 µM) was 66 pg/mL, the CXCL2 % reduction (compound 0.1 µM) was 23% and the “CXCL2 [pg/mL] Mean” value (compound 0.1 µM) was 25079 pg/mL. The MMP9 % reduction (compound 0.1 µM) was -12%, the “MMP9 [pg/mL] Mean” value (compound 0.1 µM) was 1071 pg/mL and the CXCL1 % reduction (compound 0.3 µM) was -170%. The “CXCL1 [pg/mL] Mean” value (compound 0.3 µM) was 69 pg/mL, the CXCL2 % reduction (compound 0.3 µM) was 24% and the “CXCL2 [pg/mL] Mean” value (compound 0.3 µM) was 24836 pg/mL. For the same compound, the MMP9 % reduction (compound 0.3 µM) was 4.75%, the “MMP9 [pg/mL] Mean” value (compound 0.3 µM) was 921 pg/mL and the CXCL1 % reduction (compound 1 µM) was -156%. For the same compound, the “CXCL1 [pg/mL] Mean” value (compound 1 µM) was 66 pg/mL, the CXCL2 % reduction (compound 1 µM) was 21% and the “CXCL2 [pg/mL] Mean” value (compound 1 µM) was 25750 pg/mL. For the same compound, the MMP9 % reduction (compound 1 µM) was -12%, the “MMP9 [pg/mL] Mean” value (compound 1 µM) was 1077 pg/mL and the “LPS-induced TNF-α, IL-6, and IL-1β in supernatant” value (J774.2 mouse macrophages, 0.0003-1 µM) was “dose-dependent reductions”. The CCl2, % reduction (0.0003 µM) was 30%, the “CCl2, Mean” value (0.0003 µM) was 25543 pg/mL and the IL-1β % reduction (0.0003 µM) was -32%. The IL-6 % reduction (0.0003 µM) was -12%, the TNF-α % reduction (0.0003 µM) was -6.59% and the “TNF-α Mean” value (0.0003 µM) was 1457 pg/mL. The CCl2 (0.0003 µM) was 25420.3 pg/mL and 25666.2 pg/mL, the CXCL1 (0.0003 µM) was 47.7 pg/mL and 41.8 pg/mL and the TNF-α (0.0003 µM) was 1400.2 pg/mL and 1513.9 pg/mL. The CCl2, % reduction (0.001 µM) was 27%, the “CCl2, Mean” value (0.001 µM) was 26540 pg/mL and the IL-1β % reduction (0.001 µM) was -9%. For the same compound, the IL-6 % reduction (0.001 µM) was 2.11%, the “TNF-α Mean” value (0.001 µM) was 1347 pg/mL and the CCl2 (0.001 µM) was 25719.1 pg/mL and 27360.7 pg/mL. For the same compound, the CXCL1 (0.001 µM) was 36.1 pg/mL and 45.9 pg/mL, the TNF-α (0.001 µM) was 1307.1 pg/mL and 1387.6 pg/mL and the CCl2, % reduction (0.003 µM) was 17%. For the same compound, the “CCl2, Mean” value (0.003 µM) was 29971 pg/mL, the IL-1β % reduction (0.003 µM) was 20% and the IL-6 % reduction (0.003 µM) was -10%. The TNF-α % reduction (0.003 µM) was 9%, the “TNF-α Mean” value (0.003 µM) was 1248 pg/mL and the CCl2 (0.003 µM) was 29318.9 pg/mL and 30622.8 pg/mL. The CXCL1 (0.003 µM) was 44.3 pg/mL and 37.5 pg/mL, the TNF-α (0.003 µM) was 1276.5 pg/mL and 1220.4 pg/mL and the CCl2, % reduction (0.01 µM) was 11%. For the same compound, the “CCl2, Mean” value (0.01 µM) was 32289 pg/mL, the IL-1β % reduction (0.01 µM) was 44% and the IL-6 % reduction (0.01 µM) was 16%. For the same compound, the TNF-α % reduction (0.01 µM) was 16%, the “TNF-α Mean” value (0.01 µM) was 1149 pg/mL and the CCl2 (0.01 µM) was 33314.7 pg/mL and 31263.9 pg/mL. For the same compound, the CXCL1 (0.01 µM) was 53.3 pg/mL and 43.3 pg/mL, the TNF-α (0.01 µM) was 1202.6 pg/mL and 1095.5 pg/mL and the CCl2, % reduction (0.03 µM) was -11%. For the same compound, the “CCl2, Mean” value (0.03 µM) was 39841 pg/mL, the IL-1β % reduction (0.03 µM) was 63% and the IL-6 % reduction (0.03 µM) was 40%. For the same compound, the TNF-α % reduction (0.03 µM) was 30%, the “TNF-α Mean” value (0.03 µM) was 960 pg/mL and the CCl2 (0.03 µM) was 43664.9 pg/mL and 36017.7 pg/mL. The CXCL1 (0.03 µM) was 62.3 pg/mL and 70.1 pg/mL, the TNF-α (0.03 µM) was 997.7 pg/mL and 922.4 pg/mL and the CCl2, % reduction (0.1 µM) was -6%. The “CCl2, Mean” value (0.1 µM) was 38142 pg/mL, the IL-1β % reduction (0.1 µM) was 69% and the IL-6 % reduction (0.1 µM) was 54%. For the same compound, the TNF-α % reduction (0.1 µM) was 37%, the “TNF-α Mean” value (0.1 µM) was 868 pg/mL and the CCl2 (0.1 µM) was 39902.2 pg/mL and 36382.1 pg/mL. The CXCL1 (0.1 µM) was 70.5 pg/mL and 61.8 pg/mL, the TNF-α (0.1 µM) was 957.1 pg/mL and 779.4 pg/mL and the CCl2, % reduction (0.3 µM) was 15%. For the same compound, the “CCl2, Mean” value (0.3 µM) was 30843 pg/mL, the IL-1β % reduction (0.3 µM) was 75% and the IL-6 % reduction (0.3 µM) was 57%. For the same compound, the TNF-α % reduction (0.3 µM) was 49%, the “TNF-α Mean” value (0.3 µM) was 706 pg/mL and the CCl2 (0.3 µM) was 33366.7 pg/mL and 28320.1 pg/mL. For the same compound, the CXCL1 (0.3 µM) was 70.8 pg/mL and 67.4 pg/mL, the TNF-α (0.3 µM) was 780.3 pg/mL and 630.8 pg/mL and the CCl2, % reduction (1 µM) was 14%. For the same compound, the “CCl2, Mean” value (1 µM) was 31213 pg/mL, the IL-1β % reduction (1 µM) was 76% and the IL-6 % reduction (1 µM) was 58%. For the same compound, the TNF-α % reduction (1 µM) was 52%, the “TNF-α Mean” value (1 µM) was 671 pg/mL and the CCl2 (1 µM) was 32973.4 pg/mL and 29452.4 pg/mL. For the same compound, the CXCL1 (1 µM) was 65.4 pg/mL and 65.8 pg/mL, the TNF-α (1 µM) was 708.1 pg/mL and 633.8 pg/mL and the “CXCL2” value (compound 0.0003 µM) was 24204.6 pg/mL and 25664.1 pg/mL. For the same compound, the “MMP9” value (compound 0.0003 µM) was 875.528 pg/mL and 1006.68 pg/mL, the “CXCL2” value (compound 0.001 µM) was 24896.6 pg/mL and 26281.1 pg/mL and the “MMP9” value (compound 0.001 µM) was 908.955 pg/mL and 1077.76 pg/mL. The “CXCL2” value (compound 0.003 µM) was 26063.4 pg/mL and 24885.7 pg/mL, the “MMP9” value (compound 0.003 µM) was 895.348 pg/mL and 1024.81 pg/mL and the “CXCL2” value (compound 0.01 µM) was 24945.6 pg/mL and 25043.7 pg/mL. The “MMP9” value (compound 0.01 µM) was 1078.2 pg/mL and 1162.43 pg/mL, the “CXCL2” value (compound 0.03 µM) was 28314.6 pg/mL and 25515.2 pg/mL and the “MMP9” value (compound 0.03 µM) was 1067.94 pg/mL and 991.656 pg/mL. For the same compound, the “CXCL2” value (compound 0.1 µM) was 25553.8 pg/mL and 24603.6 pg/mL, the “MMP9” value (compound 0.1 µM) was 1150.63 pg/mL and 991.656 pg/mL and the “CXCL2” value (compound 0.3 µM) was 25702.8 pg/mL and 23968.8 pg/mL. The “MMP9” value (compound 0.3 µM) was 877.422 pg/mL and 963.71 pg/mL, the “CXCL2” value (compound 1 µM) was 26832.3 pg/mL and 24668.5 pg/mL and the “MMP9” value (compound 1 µM) was 1055.41 pg/mL and 1099.09 pg/mL.
